Structures are written as SMILES.

Results on 24 compounds are retold here after patent US20130137865A1 (TAISHO PHARMACEUTICAL CO., LTD., priority 2010, published 2013).

The first assay deals with T1, rat mGlu2 receptor (Rattus norvegicus, UniProt P31421).
T1 construct: expressed in transfected cells; host or cells: CHO cells
T1 sequence (P31421 19-872): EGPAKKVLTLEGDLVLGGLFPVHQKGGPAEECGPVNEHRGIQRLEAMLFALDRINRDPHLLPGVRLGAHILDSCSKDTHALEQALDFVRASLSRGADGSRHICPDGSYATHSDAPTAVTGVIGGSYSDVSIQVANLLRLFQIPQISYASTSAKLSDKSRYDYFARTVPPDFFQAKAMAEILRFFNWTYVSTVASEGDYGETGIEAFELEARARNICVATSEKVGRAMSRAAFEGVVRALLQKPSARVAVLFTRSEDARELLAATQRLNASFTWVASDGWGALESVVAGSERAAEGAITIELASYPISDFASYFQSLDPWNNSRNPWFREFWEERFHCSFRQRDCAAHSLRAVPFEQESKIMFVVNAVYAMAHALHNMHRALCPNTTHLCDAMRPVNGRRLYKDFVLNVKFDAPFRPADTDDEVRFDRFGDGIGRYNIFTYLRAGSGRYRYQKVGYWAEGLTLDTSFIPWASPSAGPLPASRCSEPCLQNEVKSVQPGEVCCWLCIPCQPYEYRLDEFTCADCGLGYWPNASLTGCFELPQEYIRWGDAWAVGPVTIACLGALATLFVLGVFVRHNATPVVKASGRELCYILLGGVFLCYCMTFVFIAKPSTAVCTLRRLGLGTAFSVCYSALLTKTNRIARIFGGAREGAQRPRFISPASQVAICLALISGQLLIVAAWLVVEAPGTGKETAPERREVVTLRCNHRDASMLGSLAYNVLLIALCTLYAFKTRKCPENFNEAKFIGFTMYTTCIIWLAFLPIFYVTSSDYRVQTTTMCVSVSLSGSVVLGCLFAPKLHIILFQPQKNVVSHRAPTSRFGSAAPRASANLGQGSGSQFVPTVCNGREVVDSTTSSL
In words: [35S]GTPγS binding test (1), membranes of CHO cells stably expressing rat mGlu2. Type of assay: biochemical. The following applies: inhibition of glutamic acid (20 μM)-stimulated specific [35S]GTPγS binding. On the procedure:
(Preparation of Crude Membrane Fraction of CHO Cells Stably Expressing the Rat Metabotropic Glutamate Receptor (mGlu2))
(§1) CHO cells stably expressing the rat mGlu2 receptor were cultured in a 10% dialyzed fetal bovine serum-containing Dulbecco's Modified Eagle's Medium [1% proline, 50 units/mL penicillin, 50 μg/mL streptomycin, and 2 mM L-glutamine (to be added when used)] at 37° C. in 5% CO2. Confluent cells were washed with PBS(−) twice, and were then harvested with a cell scraper. Then, the cells were centrifuged at 4° C. at 1000 rpm for 5 minutes to collect. The obtained precipitate was suspended in a 20 mM HEPES buffer (pH 7.4), and then homogenized with a Teflon® homogenizer. The resultant was centrifuged at 4° C. at 48,000×g for 20 minutes to obtain a precipitate again. The obtained precipitate was washed twice by centrifugation, and was then homogenized with the above-mentioned buffer, so as to obtain a crude membrane fraction. The obtained crude membrane fraction was preserved at −80° C.
(§2) The frozen membrane fraction as prepared above was thawed when used, and it was then diluted with a binding test buffer (final concentration: 20 mM HEPES, 100 mM NaCl, 10 mM MgCl2, 8.4 μM GDP, 10 μg/mL saponin, and 0.1% BSA). The compound of the Example was added to a membrane fraction (10 μg protein/assay), and the obtained mixture was then incubated at 30° C. for 20 minutes. Thereafter, glutamic acid (final concentration: 20 μM) and [^35S]GTPγS (final concentration: 0.15 nM) were added to the reaction mixture, and then incubated at 30° C. for 1 hour. After completion of the incubation, the reaction mixture was subjected to filtration over a Whatman GF/C filter that had previously been immersed in a 20 mM HEPES buffer (pH 7.4), and the filter was then washed three times with 300 μL of ice-cold 20 mM HEPES buffer (pH 7.4). A scintillation cocktail was added to the resulting filter, and membrane-bound radioactivity was then measured with a liquid scintillation counter.
(§3) The amount of [^35S]GTPγS bound in the case of carrying out the above described reaction in the absence of glutamic acid was defined as non-specific binding. The difference between such non-specific bound and the amount of [^35S]GTPγS bound in the presence of glutamic acid was defined as specific binding. Using non-linear analysis, a concentration-inhibition curve was produced. The concentration of the compound of each Example that caused 50% inhibition (IC50 value) of specific binding was determined from each concentration-inhibition curve.
On the technique in general: Binding of GTPγS marks nucleotide exchange on a G protein.
For orientation: IC50 means the point on the concentration scale where inhibition reaches its midpoint. A low value points to greater potency. In the case of `Cn1ncc(-c2noc(-c3ccc(S(N)(=O)=O)cc3)n2)c1CCc1ccc(C(F)(F)F)cc1` [Example 3, 4-[3-(1-Methyl-5-{2-[4-(trifluoromethyl)phenyl]ethyl}-1H-pyrazol-4-yl)-1,2,4-oxadiazol-5-yl]benzenesulfonamide], the IC50 is 3.65 nM.
Same read-out and setting: the same measure for `Cn1ncc(-n2cc(-c3ccc(S(N)(=O)=O)cc3)cn2)c1CCc1ccc(C(F)(F)F)cc1` [Example 6, 4-(1′-Methyl-5′-{2-[4-(trifluoromethyl)phenyl]ethyl}-1′H-1,4′-bipyrazol-4-yl)benzenesulfonamide]: 58.5 nM.

The target of the next assay is T2, human mGlu2 receptor (Homo sapiens, UniProt Q14416).
T2 construct: expressed in transfected cells; host or cells: CHO cells
T2 sequence (Q14416 19-872): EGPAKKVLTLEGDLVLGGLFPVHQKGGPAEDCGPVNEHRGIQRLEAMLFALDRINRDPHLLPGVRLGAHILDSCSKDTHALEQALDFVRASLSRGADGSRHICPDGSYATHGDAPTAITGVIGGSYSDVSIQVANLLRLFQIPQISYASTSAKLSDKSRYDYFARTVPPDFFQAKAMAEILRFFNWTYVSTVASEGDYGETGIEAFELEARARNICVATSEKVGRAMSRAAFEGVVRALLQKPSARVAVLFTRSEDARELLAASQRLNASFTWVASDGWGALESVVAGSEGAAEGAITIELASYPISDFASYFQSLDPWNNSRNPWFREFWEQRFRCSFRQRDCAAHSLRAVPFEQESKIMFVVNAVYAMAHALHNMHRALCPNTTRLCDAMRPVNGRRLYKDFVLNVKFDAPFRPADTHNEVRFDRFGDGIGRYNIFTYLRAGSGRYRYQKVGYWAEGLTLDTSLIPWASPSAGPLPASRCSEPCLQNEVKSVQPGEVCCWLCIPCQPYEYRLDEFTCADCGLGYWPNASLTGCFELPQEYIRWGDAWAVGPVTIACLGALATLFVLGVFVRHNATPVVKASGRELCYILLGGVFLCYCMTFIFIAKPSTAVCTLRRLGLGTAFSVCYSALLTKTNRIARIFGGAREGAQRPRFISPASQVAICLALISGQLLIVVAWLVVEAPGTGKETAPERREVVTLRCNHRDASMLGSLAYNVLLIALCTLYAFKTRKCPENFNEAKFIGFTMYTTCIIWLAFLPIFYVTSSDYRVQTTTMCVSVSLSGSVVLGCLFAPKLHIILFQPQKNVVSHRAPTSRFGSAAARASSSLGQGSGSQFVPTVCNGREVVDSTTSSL
Nature of the assay: [35S]GTPγS binding test (2), membranes of CHO cells stably expressing human mGlu2. The following applies: inhibition of glutamic acid (20 μM)-stimulated specific [35S]GTPγS binding. Type of assay: biochemical. How it is done: (Preparation of Crude Membrane Fraction of CHO Cells Stably Expressing the Human Metabotropic Glutamate Receptor (mGlu2))
as §1, with “human” for “rat”, “streptomycin, 400 μg/mL hygromycin B,” for “streptomycin,”
as §2, §3
Turning to `Cn1ncc(-c2nc(-c3cccc(S(N)(=O)=O)c3)no2)c1COc1ccc(F)cn1` [Example 72, 3-[5-(5-{[(5-Fluoropyridin-2-yl)oxy]methyl}-1-methyl-1H-pyrazol-4-yl)-1,2,4-oxadiazol-3-yl]benzenesulfonamide], the IC50 amounted to 10.3 nM.
The compound `Cn1ncc(-c2nc(-c3cccc(S(N)(=O)=O)c3)no2)c1COc1ccccn1` [Example 75, 3-(5-{1-Methyl-5-[(pyridin-2-yloxy)methyl]-1H-pyrazol-4-yl}-1,2,4-oxadiazole-3-yl)benzenesulfonamide] came in with an IC50 of 36.7 nM.
In the case of `CN(C)CCNS(=O)(=O)c1cccc(-c2noc(-c3cnn(C)c3COc3ccc(F)cn3)n2)c1` [Example 85, N-[2-(Dimethylamino)ethyl]-3-[5-(5-{[(5-fluoropyridin-2-yl)oxy]methyl}-1-methyl-1H-pyrazol-4-yl)-1,2,4-oxadiazol-3-yl]benzenesulfonamide], the IC50 came to 13.6 nM.
For the compound `Cn1ncc(-c2nc(-c3ccc(N)nc3)no2)c1COc1ccc(C(F)(F)F)cc1` [Example 92, 5-[5-(1-Methyl-5-{[4-(trifluoromethyl)phenoxy]methyl}-1H-pyrazol-4-yl)-1,2,4-oxadiazol-3-yl]pyridine-2-amine], the IC50 is 28.6 nM.
`Cn1ncc(-c2nc(-c3cccc(S(N)(=O)=O)c3)no2)c1COc1ccc(C(F)(F)F)cn1` [Example 122, 3-{5-[1-Methyl-5-({[5-(trifluoromethyl)pyridin-2-yl]oxy}methyl)-1H-pyrazol-4-yl]-1,2,4-oxadiazol-3-yl}benzenesulfonamide] had an IC50 of 1.33 nM.
For `CNS(=O)(=O)c1cccc(-c2noc(-c3cnn(C)c3COc3ccccn3)n2)c1` [Example 146, N-Methyl-3-(5-{1-methyl-5-[(pyridin-2-yloxy)methyl]-1H-pyrazol-4-yl}-1,2,4-oxadiazol-3-yl)benzenesulfonamide], the IC50 was 13.2 nM.
In turn, `Cn1ncc(-c2nnc(-c3cccc(S(N)(=O)=O)c3)o2)c1COc1ccc(C(F)(F)F)cn1` [Example 187, 3-{5-[1-Methyl-5-({[5-(trifluoromethyl)pyridin-2-yl]oxy}methyl)-1H-pyrazol-4-yl]-1,3,4-oxadiazol-2-yl}benzenesulfonamide] returned an IC50 of 21.5 nM.
In turn, `Cn1ncc(-c2nnc(-c3ccc(S(N)(=O)=O)cc3)o2)c1COc1ccc(C(F)(F)F)cc1` [Example 190, 4-[5-(1-Methyl-5-{[4-(trifluoromethyl)phenoxy]methyl}-1H-pyrazol-4-yl)-1,3,4-oxadiazol-2-yl]benzenesulfonamide] returned an IC50 of 67.2 nM.
`Cn1ncc(-c2coc(-c3cccc(S(N)(=O)=O)c3)n2)c1COc1ccc(C(F)(F)F)cc1` [Example 203, 3-[4-(1-Methyl-5-{[4-(trifluoromethyl)phenoxy]methyl}-1H-pyrazol-4-yl)-1,3-oxazol-2-yl]benzenesulfonamide] displayed an IC50 of 3.85 nM.
The same measure, in the same setting: then `Cn1ncc(-c2cc(-c3cccc(S(N)(=O)=O)c3)on2)c1COc1ccc(F)cn1` [Example 204, 3-[3-(5-{[(5-Fluoropyridin-2-yl)oxy]methyl}-1-methyl-1H-pyrazol-4-yl)-1,2-oxazol-5-yl]benzenesulfonamide], with 50.8 nM; and `CC(=O)Nc1cc(-c2noc(-c3cnn(C)c3COc3ccc(C(F)(F)F)cc3)n2)ccn1` [Example 208, N-{4-[5-(1-methyl-5-{[4-(trifluoromethyl)phenoxy]methyl}-1H-pyrazol-4-yl)-1,2,4-oxadiazol-3-yl]pyridin-2-yl}acetamide], with 29.1 nM; and `Cn1ncc(-c2nc(-c3cccc(S(N)(=O)=O)c3)no2)c1COc1ncc(F)cc1Br` [Example 214, 3-[5-(5-{[(3-Bromo-5-fluoropyridin-2-yl)oxy]methyl}-1-methyl-1H-pyrazol-4-yl)-1,2,4-oxadiazol-3-yl]benzenesulfonamide], with 26.4 nM.
With `Cn1ncc(-c2nc(-c3ccc(S(C)(=O)=O)cc3)no2)c1COc1ccc(C(F)(F)F)cn1` [Example 215, 2-[(1-Methyl-4-{3-[4-(methylsulfonyl)phenyl]-1,2,4-oxadiazol-5-yl}-1H-pyrazol-5-yl)methoxy]-5-(trifluoromethyl)pyridine], the IC50 stood at 49.1 nM.
In turn, `Cn1ncc(-c2nc(-c3cccc(S(C)(=O)=O)c3)no2)c1COc1ccc(C(F)(F)F)cn1` [Example 216, 2-[(1-Methyl-4-{3-[3-(methylsulfonyl)phenyl]-1,2,4-oxadiazol-5-yl}-1H-pyrazol-5-yl)methoxy]-5-(trifluoromethyl)pyridine] registered an IC50 of 4.32 nM.
Regarding `CC(=O)Nc1cc(-c2noc(-c3cnn(C)c3COc3ccc(C(F)(F)F)cn3)n2)ccn1` [Example 217, N-(4-{5-[1-Methyl-5-({[5-(trifluoromethyl)pyridin-2-yl]oxy}methyl)-1H-pyrazol-4-yl]-1,2,4-oxadiazol-3-yl}pyridin-2-yl)acetamide], the IC50 came to 14.9 nM.
The compound `Cn1ncc(-c2nc(-c3cnc(N)nc3)no2)c1COc1ccc(C(F)(F)F)cn1` [Example 218, 5-{5-[1-Methyl-5-({[5-(trifluoromethyl)pyridin-2-yl]oxy}methyl)-1H-pyrazol-4-yl]-1,2,4-oxadiazol-3-yl}pyrimidine-2-amine] registered an IC50 of 68 nM.
As to `Cn1ncc(-c2nc(-c3cccc(N)c3)no2)c1COc1ccc(C(F)(F)F)cn1` [Example 220, 3-{5-[1-Methyl-5-({[5-(trifluoromethyl)pyridin-2-yl]oxy}methyl)-1H-pyrazol-4-yl]-1,2,4-oxadiazol-3-yl}aniline], the IC50 is 32.2 nM.
On to `Cn1ncc(-c2nc(-c3cncc(S(C)(=O)=O)c3)no2)c1COc1ccc(C(F)(F)F)cn1` [Example 223, 2-[(1-Methyl-4-{3-[5-(methylsulfonyl)pyridin-3-yl]-1,2,4-oxadiazol-5-yl}-1H-pyrazol-5-yl)methoxy]-5-(trifluoromethyl)pyridine], for which the IC50 was determined as 17.1 nM.
`Cn1ncc(-c2nc(-c3cncc(S(N)(=O)=O)c3)no2)c1COc1ccc(C(F)(F)F)cn1` [Example 224, 5-{5-[1-Methyl-5-({[5-(trifluoromethyl)pyridin-2-yl]oxy}methyl)-1H-pyrazol-4-yl]-1,2,4-oxadiazol-3-yl}pyridine-3-sulfonamide] yielded an IC50 of 3.64 nM.
Same read-out and setting: then `Cn1ncc(-c2nc(-c3cc[nH]c(=O)c3)no2)c1COc1ccc(C(F)(F)F)cn1` [Example 228, 4-{5-[1-Methyl-5-({[5-(trifluoromethyl)pyridin-2-yl]oxy}methyl)-1H-pyrazol-4-yl]-1,2,4-oxadiazol-3-yl}pyridine-2(1H)-one], with 56.9 nM.
`CNCCNS(=O)(=O)c1cccc(-c2noc(-c3cnn(C)c3COc3ccc(F)cn3)n2)c1` [Example 232, 3-[5-(5-{[(5-Fluoropyridin-2-yl)oxy]methyl}-1-methyl-1H-pyrazol-4-yl)-1,2,4-oxadiazol-3-yl]-N-[2-(methylamino)ethyl]benzenesulfonamide] returned an IC50 of 33.2 nM.
`Cn1nc(-c2cccc(S(N)(=O)=O)c2)nc1-c1cnn(C)c1COc1ccc(C(F)(F)F)cc1` [Example 233, 3-[1-Methyl-5-(1-methyl-5-{[4-(trifluoromethyl)phenoxy]methyl}-1H-pyrazol-4-yl)-1H-1,2,4-triazol-3-yl]benzenesulfonamide]: the IC50 is 80.6 nM.
